Measured values: PubChem BioAssay AID1259407 (Chemical Carcinogenesis Research Information System (CCRIS), 2018)
Activity calls are given as the source filed them. The rule behind the calls is not given here.

Tested on: CCRIS mutagenicity, Ames/micronucleus/aberration tests
Experiment: CCRIS mutagenicity studies

## Cc1ccccc1N
End Point: IN VIVO MICRONUCLEUS, Test System: HEPATOCYTES, Species: RAT, Strain/Sex: FISHER 344 OR SD/MALE, Route: ORAL OR IP
  mutagenic call: inactive; negative
End Point: IN VIVO MICRONUCLEUS, Test System: PERIPHERAL BLOOD RETICULOCYTES, Species: RAT, Strain/Sex: FISHER 344 OR SD/MALE, Route: ORAL OR IP
  mutagenic call: active; positive
Test System: AMES SALMONELLA TYPHIMURIUM, Strain/Indicator: TA97, Metabolic Activation: HAMSTER LIVER S-9, AROCLOR 1254 (10 OR 30%), Method: PREINCUBATION
  mutagenic call: inactive; negative
Test System: AMES SALMONELLA TYPHIMURIUM, Strain/Indicator: TA97, Metabolic Activation: NONE, Method: PREINCUBATION
  mutagenic call: inactive; negative
Test System: AMES SALMONELLA TYPHIMURIUM, Strain/Indicator: TA97, Metabolic Activation: NONE, Method: STANDARD PLATE
  mutagenic call: inactive; negative
Test System: AMES SALMONELLA TYPHIMURIUM, Strain/Indicator: TA97, Metabolic Activation: RAT LIVER S-9, AROCLOR 1254 (10 OR 30%), Method: PREINCUBATION
  mutagenic call: inactive; negative
Test System: AMES SALMONELLA TYPHIMURIUM, Strain/Indicator: TA97, Metabolic Activation: RAT, LIVER, S-9, PHENOBARBITAL AND 5,6-BENZOFLAVONE, Method: PREINCUBATION
  mutagenic call: inactive; negative
Test System: AMES SALMONELLA TYPHIMURIUM, Strain/Indicator: TA97, Metabolic Activation: S-9, Method: STANDARD PLATE
  mutagenic call: inactive; negative
Test System: AMES SALMONELLA TYPHIMURIUM, Strain/Indicator: TA98, Metabolic Activation: HAMSTER LIVER S-9, AROCLOR 1254 (10 OR 30%), Method: PREINCUBATION
  mutagenic call: inactive; negative
Test System: AMES SALMONELLA TYPHIMURIUM, Strain/Indicator: TA98, Metabolic Activation: HAMSTER, LIVER, S-9, AROCLOR 1254 (10%), Method: PREINCUBATION
  mutagenic call: inactive; negative
Test System: AMES SALMONELLA TYPHIMURIUM, Strain/Indicator: TA98, Metabolic Activation: HAMSTER, LIVER, S-9, AROCLOR 1254 (30%), Method: PREINCUBATION
  mutagenic call: inactive; negative
Test System: AMES SALMONELLA TYPHIMURIUM, Strain/Indicator: TA98, Metabolic Activation: HAMSTER, LIVER, S-9, SODIUM PHENOBARBITAL AND 5,6-BENZOFLAVONE, Method: PREINCUBATION
  mutagenic call: inactive; negative
Test System: AMES SALMONELLA TYPHIMURIUM, Strain/Indicator: TA98, Metabolic Activation: HAMSTER, LIVER, S-9, Method: PREINCUBATION (PRIVAL METHOD)
  mutagenic call: active; positive
Test System: AMES SALMONELLA TYPHIMURIUM, Strain/Indicator: TA98, Metabolic Activation: NONE, Method: PREINCUBATION
  mutagenic call: inactive; negative
Test System: AMES SALMONELLA TYPHIMURIUM, Strain/Indicator: TA98, Metabolic Activation: NONE, Method: STANDARD PLATE
  mutagenic call: inactive; negative
Test System: AMES SALMONELLA TYPHIMURIUM, Strain/Indicator: TA98, Metabolic Activation: RAT LIVER S-9, AROCLOR 1254 (10 OR 30%), Method: PREINCUBATION
  mutagenic call: inactive; negative
Test System: AMES SALMONELLA TYPHIMURIUM, Strain/Indicator: TA98, Metabolic Activation: RAT, LIVER, S-9, AROCLOR 1254 (10%), Method: PREINCUBATION
  mutagenic call: inactive; negative
Test System: AMES SALMONELLA TYPHIMURIUM, Strain/Indicator: TA98, Metabolic Activation: RAT, LIVER, S-9, AROCLOR 1254 (30%), Method: PREINCUBATION
  mutagenic call: inactive; negative
Test System: AMES SALMONELLA TYPHIMURIUM, Strain/Indicator: TA98, Metabolic Activation: RAT, LIVER, S-9, AROCLOR 1254 + 200 UG NORHARMAN, Method: STANDARD PLATE
  mutagenic call: active; positive
Test System: AMES SALMONELLA TYPHIMURIUM, Strain/Indicator: TA98, Metabolic Activation: RAT, LIVER, S-9, AROCLOR 1254, Method: PREINCUBATION
  mutagenic call: inactive; negative
Test System: AMES SALMONELLA TYPHIMURIUM, Strain/Indicator: TA98, Metabolic Activation: RAT, LIVER, S-9, PHENOBARBITAL AND 5,6-BENZOFLAVONE, Method: PREINCUBATION
  mutagenic call: inactive; negative
Test System: AMES SALMONELLA TYPHIMURIUM, Strain/Indicator: TA98, Metabolic Activation: S-9, Method: STANDARD PLATE
  mutagenic call: inactive; negative
Test System: AMES SALMONELLA TYPHIMURIUM, Strain/Indicator: TA100, Metabolic Activation: HAMSTER LIVER S-9, AROCLOR 1254 (10%), Method: PREINCUBATION
  mutagenic call: inactive; negative
Test System: AMES SALMONELLA TYPHIMURIUM, Strain/Indicator: TA100, Metabolic Activation: HAMSTER LIVER S-9, AROCLOR 1254 (30%), Method: PREINCUBATION
  mutagenic call: active; positive
Test System: AMES SALMONELLA TYPHIMURIUM, Strain/Indicator: TA100, Metabolic Activation: HAMSTER, LIVER, S-9, AROCLOR 1254 (10%), Method: PREINCUBATION
  mutagenic call: inactive; negative
Test System: AMES SALMONELLA TYPHIMURIUM, Strain/Indicator: TA100, Metabolic Activation: HAMSTER, LIVER, S-9, AROCLOR 1254 (30%), Method: PREINCUBATION
  mutagenic call: active; positive
Test System: AMES SALMONELLA TYPHIMURIUM, Strain/Indicator: TA100, Metabolic Activation: HAMSTER, LIVER, S-9, SODIUM PHENOBARBITAL AND 5,6-BENZOFLAVONE, Method: PREINCUBATION
  mutagenic call: inactive; negative
Test System: AMES SALMONELLA TYPHIMURIUM, Strain/Indicator: TA100, Metabolic Activation: NONE, Method: PREINCUBATION
  mutagenic call: inactive; negative
Test System: AMES SALMONELLA TYPHIMURIUM, Strain/Indicator: TA100, Metabolic Activation: NONE, Method: STANDARD PLATE
  mutagenic call: inactive; negative
Test System: AMES SALMONELLA TYPHIMURIUM, Strain/Indicator: TA100, Metabolic Activation: RAT LIVER S-9, AROCLOR 1254 (10 OR 30%), Method: PREINCUBATION
  mutagenic call: inactive; negative
Test System: AMES SALMONELLA TYPHIMURIUM, Strain/Indicator: TA100, Metabolic Activation: RAT, LIVER, S-9, AROCLOR 1254 (10%), Method: PREINCUBATION
  mutagenic call: inactive; negative
Test System: AMES SALMONELLA TYPHIMURIUM, Strain/Indicator: TA100, Metabolic Activation: RAT, LIVER, S-9, AROCLOR 1254 (30%), Method: PREINCUBATION
  mutagenic call: inactive; negative
Test System: AMES SALMONELLA TYPHIMURIUM, Strain/Indicator: TA100, Metabolic Activation: RAT, LIVER, S-9, AROCLOR 1254, Method: STANDARD PLATE
  mutagenic call: inactive; negative
Test System: AMES SALMONELLA TYPHIMURIUM, Strain/Indicator: TA100, Metabolic Activation: RAT, LIVER, S-9, PHENOBARBITAL AND 5,6-BENZOFLAVONE, Method: PREINCUBATION
  mutagenic call: inactive; negative
Test System: AMES SALMONELLA TYPHIMURIUM, Strain/Indicator: TA100, Metabolic Activation: S-9, Method: STANDARD PLATE
  mutagenic call: inactive; negative
Test System: AMES SALMONELLA TYPHIMURIUM, Strain/Indicator: TA102, Metabolic Activation: HAMSTER, LIVER, S-9, SODIUM PHENOBARBITAL AND 5,6-BENZOFLAVONE, Method: PREINCUBATION
  mutagenic call: inactive; negative
Test System: AMES SALMONELLA TYPHIMURIUM, Strain/Indicator: TA102, Metabolic Activation: NONE, Method: PREINCUBATION
  mutagenic call: inactive; negative
Test System: AMES SALMONELLA TYPHIMURIUM, Strain/Indicator: TA102, Metabolic Activation: NONE, Method: STANDARD PLATE
  mutagenic call: inactive; negative
Test System: AMES SALMONELLA TYPHIMURIUM, Strain/Indicator: TA102, Metabolic Activation: S-9, Method: STANDARD PLATE
  mutagenic call: inactive; negative
